ChEMBL document CHEMBL5252613, “Discovery and anti-tumor activity of 4-(benzylamino)-6-(3,5-dimethylisoxazol-4-yl)quinolin-2(1H)-one (CG13250), a potent, selective and orally bioavailable BET bromodomain inhibitor” (Bioorg Med Chem Lett, 2023)

Key:
MV4-11 = test: Growth inhibition of human MV4-11 cells measured after 72 hrs; assay type: functional
[1] = biological target: T1, Bromodomain-containing protein 4 (Homo sapiens, UniProt O60885); test: Inhibition of BRD4 bromodomain 1/2 (unknown origin) assessed as dissociation constant by DiscoveRx BROMOscan assay
[2] = biological target: T1, Bromodomain-containing protein 4; test: Inhibition of BRD4 bromodomain 1/2 (unknown origin) by Alphascreen assay

Structure (SMILES) | GI50 (MV4-11) | Kd [1] | IC50 [2]
Cc1noc(C)c1-c1ccc2[nH]c(=O)cc(NCC3CCCCC3)c2c1 | 3780 nM | 250 nM | 
Cc1noc(C)c1-c1ccc2[nH]c(=O)cc(O)c2c1 | > 100000 nM | 3400 nM | 16000 nM
Cc1noc(C)c1-c1ccc2c(-c3ccccc3)cc(=O)[nH]c2c1 | 14000 nM | 7400 nM | 3100 nM
Cc1noc(C)c1-c1ccc2[nH]c(=O)cc(N3CCCC3)c2c1 | 1990 nM | 370 nM | 

Second part, the compound after the results:

GI50 (MV4-11) | Kd [1] | IC50 [2] | Structure (SMILES)
1700 nM | 210 nM |  | Cc1noc(C)c1-c1ccc2[nH]c(=O)cc(NCc3ccc(Cl)cc3)c2c1
1660 nM | 55 nM |  | Cc1noc(C)c1-c1ccc2[nH]c(=O)cc(NCc3ccccc3Cl)c2c1
 | 130 nM |  | Cc1noc(C)c1-c1ccc2[nH]c(=O)cc(NCc3ccccc3F)c2c1
 | 220 nM |  | Cc1noc(C)c1-c1ccc2[nH]c(=O)cc(NCc3cccc(C(F)(F)F)c3)c2c1
1220 nM | 28 nM |  | Cc1noc(C)c1-c1ccc2[nH]c(=O)cc(NCc3cccc(Cl)c3)c2c1
16000 nM | 1300 nM | 3100 nM | Cc1noc(C)c1-c1ccc2[nH]c(=O)cc(-c3ccccc3)c2c1
